For experiment [1], the target named is EeAChE (Electrophorus electricus acetylcholinesterase) (Electrophorus electricus, UniProt O42275). Description: AChE inhibition assay. In kind it is biochemical, electric eel.
Experiment [2] concerns the target hBACE 1 (Homo sapiens, UniProt P56817). Description: BACE 1 FRET inhibition assay. It counts as biochemical. As to conditions: human BACE 1.
Where [3] appears, read: hBACE 1 IC50 (μM) ± SD, mean ± SD, n = 3, FRET assay.

Structures are written as SMILES. Read-outs that look alike come from different tables or passages of the source.

Sequence of EeAChE (Electrophorus electricus acetylcholinesterase) (O42275 24-633): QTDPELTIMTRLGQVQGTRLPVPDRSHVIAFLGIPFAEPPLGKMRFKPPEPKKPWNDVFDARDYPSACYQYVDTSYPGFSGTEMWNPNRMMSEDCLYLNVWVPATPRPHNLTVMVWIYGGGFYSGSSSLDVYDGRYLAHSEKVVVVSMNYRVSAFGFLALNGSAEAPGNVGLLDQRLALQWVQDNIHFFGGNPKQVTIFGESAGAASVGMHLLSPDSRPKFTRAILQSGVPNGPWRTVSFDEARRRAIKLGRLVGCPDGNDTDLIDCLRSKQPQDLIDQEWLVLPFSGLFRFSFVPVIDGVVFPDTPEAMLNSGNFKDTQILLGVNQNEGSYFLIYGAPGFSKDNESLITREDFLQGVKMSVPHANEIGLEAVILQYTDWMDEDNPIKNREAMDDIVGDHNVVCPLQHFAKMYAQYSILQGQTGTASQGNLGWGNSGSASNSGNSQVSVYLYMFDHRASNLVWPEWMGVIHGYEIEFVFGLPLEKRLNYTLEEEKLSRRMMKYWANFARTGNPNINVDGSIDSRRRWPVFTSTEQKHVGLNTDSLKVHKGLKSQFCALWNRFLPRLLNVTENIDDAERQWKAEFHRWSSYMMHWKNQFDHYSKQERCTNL
Sequence of hBACE 1 (P56817 46-501): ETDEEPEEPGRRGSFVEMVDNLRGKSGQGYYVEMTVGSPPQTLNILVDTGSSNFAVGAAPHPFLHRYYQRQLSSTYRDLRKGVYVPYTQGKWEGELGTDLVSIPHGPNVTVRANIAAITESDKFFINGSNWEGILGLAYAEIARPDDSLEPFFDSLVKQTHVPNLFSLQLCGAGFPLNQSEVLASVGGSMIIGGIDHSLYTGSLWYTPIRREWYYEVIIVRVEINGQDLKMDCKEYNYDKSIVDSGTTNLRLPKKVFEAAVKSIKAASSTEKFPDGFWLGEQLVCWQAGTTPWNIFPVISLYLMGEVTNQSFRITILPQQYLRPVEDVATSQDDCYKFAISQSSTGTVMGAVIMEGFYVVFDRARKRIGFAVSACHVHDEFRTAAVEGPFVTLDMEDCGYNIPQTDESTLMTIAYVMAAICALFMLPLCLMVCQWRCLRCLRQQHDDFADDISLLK

For `[H]/N=C(/N)NN=C(/C=C/c1ccc(F)c(F)c1)c1cn(Cc2ccccc2)c2ccccc12` [Compound 1a, (Z)-2-((E)-1-(1-Benzyl-1H-indol-3-yl)-3-(3,4-difluorophenyl)allylidene)hydrazine-1-carboximidamide], the IC50 (commonly the concentration that gives 50% inhibition) in experiment [1] is 77.2 ± 2.24 µM; in experiment [2] (setting [3]) it was 72.11 ± 0.01 µM; in experiment [2] (hBACE 1 PIC50 (μM)), 72.4 µM.
For `[H]/N=C(/N)NN=C(/C=C/c1ccc(C(C)(C)C)cc1)c1cn(Cc2ccccc2)c2ccccc12` [Compound 1b, (Z)-2-((E)-1-(1-Benzyl-1H-indol-3-yl)-3-(4-(tert-butyl)phenyl)allylidene)hydrazine-1-carboximidamide], the IC50 in experiment [1] is 42.9 ± 0.48 µM; in experiment [2] (setting [3]), 97.4 ± 1.36 µM; in experiment [2] (hBACE 1 PIC50 (μM)), 97.7 µM.
For `[H]/N=C(/N)NN=C(/C=C/c1ccc(OC)c(OC)c1)c1cn(Cc2ccccc2)c2ccccc12` [Compound 1c, (Z)-2-((E)-1-(1-Benzyl-1H-indol-3-yl)-3-(3,4-dimethoxyphenyl)allylidene)hydrazine-1-carboximidamide] the same measures were 77.1 ± 1.54 µM, 59.51 ± 0.21 µM and 58.9 µM.
For `[H]/N=C(/N)NN=C(/C=C/c1ccc(C(C)C)cc1)c1cn(Cc2ccccc2)c2ccccc12` [Compound 1d, (Z)-2-((E)-1-(1-Benzyl-1H-indol-3-yl)-3-(4-isopropylphenyl)allylidene)hydrazine-1-carboximidamide] the same measures were 146 ± 3.18 µM, 11.7 ± 0.15 µM and 11.7 µM.
For `[H]/N=C(/N)NN=C(/C=C/c1cccc(OC)c1)c1cn(Cc2ccccc2)c2ccccc12` [Compound 1e, (Z)-2-((E)-1-(1-Benzyl-1H-indol-3-yl)-3-(3-methoxyphenyl)allylidene)hydrazine-1-carboximidamide] the same measures were 137.8 ± 0.14 µM, 117.2 ± 0.57 µM and 117 µM.
Take `[H]/N=C(/N)NN=C(/C=C/c1cccc(F)c1)c1cn(Cc2ccccc2)c2ccccc12` [Compound 1f, (Z)-2-((E)-1-(1-Benzyl-1H-indol-3-yl)-3-(3-fluorophenyl)allylidene)hydrazine-1-carboximidamide]: the IC50 was 67 ± 1.95 µM in experiment [1], 88.59 ± 0.32 µM in experiment [2] (setting [3]) and 89.1 µM in experiment [2] (hBACE 1 PIC50 (μM)).
For `[H]/N=C(/N)NN=C(/C=C/c1ccc(N(C)C)cc1)c1cn(Cc2ccccc2)c2ccccc12` [Compound 1g, (Z)-2-((E)-1-(1-Benzyl-1H-indol-3-yl)-3-(4-(dimethylamino)phenyl)allylidene)hydrazine-1-carboximidamide] the same measures were 78.2 ± 2.28 µM, 89 ± 2.29 µM and 89.1 µM.
For `[H]/N=C(/N)NN=C(/C=C/c1cccc(Br)c1)c1cn(Cc2ccccc2)c2ccccc12` [Compound 1h, (Z)-2-((E)-1-(1-Benzyl-1H-indol-3-yl)-3-(3-bromophenyl)allylidene)hydrazine-1-carboximidamide] the same measures were 66.3 ± 1.72 µM, 15.1 ± 0.74 µM and 15.1 µM.
For `[H]/N=C(/N)NN=C(/C=C/c1ccc(Br)cc1)c1cn(Cc2ccccc2)c2ccccc12` [Compound 1i, (Z)-2-((E)-1-(1-Benzyl-1H-indol-3-yl)-3-(4-bromophenyl)allylidene)hydrazine-1-carboximidamide] the same measures were 73.1 ± 2.07 µM, 97.83 ± 0.31 µM and 97.7 µM.
For the compound `[H]/N=C(/N)NN=C(/C=C/c1cc(OC)ccc1OC)c1cn(Cc2ccccc2)c2ccccc12` [Compound 1j, (Z)-2-((E)-1-(1-Benzyl-1H-indol-3-yl)-3-(2,5-dimethoxyphenyl)allylidene)hydrazine-1-carboximidamide], the figures for the IC50 in experiment [1], in experiment [2] (setting [3]) and in experiment [2] (hBACE 1 PIC50 (μM)) were 61 ± 2.29 µM, 72.2 ± 1.76 µM and 72.4 µM, respectively.
For `[H]/N=C(/N)NN=C(/C=C/c1ccc(C)cc1)c1cn(Cc2ccccc2)c2ccccc12` [Compound 1k, (Z)-2-((E)-1-(1-Benzyl-1H-indol-3-yl)-3-(p-tolyl)allylidene)hydrazine-1-carboximidamide] the same measures were 186 ± 2.69 µM, 132.1 ± 0.28 µM and 132 µM.
As for `[H]/N=C(/N)NN=C(/C=C/c1ccc(C#N)cc1)c1cn(Cc2ccccc2)c2ccccc12` [Compound 1l, (Z)-2-((E)-1-(1-Benzyl-1H-indol-3-yl)-3-(4-cyanophenyl)allylidene)hydrazine-1-carboximidamide], the IC50 in experiment [1] is 60.9 ± 2.53 µM; in experiment [2] (setting [3]), 9.38 ± 0.5 µM; in experiment [2] (hBACE 1 PIC50 (μM)), 9.33 µM.
`[H]/N=C(/N)NN=C(/C=C/c1ccc(F)cc1F)c1cn(Cc2ccccc2)c2ccccc12` [Compound 1m, (Z)-2-((E)-1-(1-Benzyl-1H-indol-3-yl)-3-(2,4-difluorophenyl)allylidene)hydrazine-1-carboximidamide]: in experiment [1] (AChE from electric eel), the “EeAChE PIC50” value amounted to 3.83 µM. The IC50 in experiment [1] (read-out: EeAChE IC50 (μM) ± SD, mean ± SD, n = 3, AChE from electric eel, Ellman assay) came to 148 ± 3.11 µM; in experiment [2] (read-out: hBACE 1 IC50 (μM) ± SD, mean ± SD, n = 3, FRET assay) it was 12.8 ± 0.5 µM. Also, the “hBACE 1 PIC50” value in experiment [2] came out at 4.89 µM.
Turning to `[H]/N=C(/N)NN=C(/C=C/c1ccccc1[N+](=O)[O-])c1cn(Cc2ccccc2)c2ccccc12` [Compound 1n, (Z)-2-((E)-1-(1-Benzyl-1H-indol-3-yl)-3-(2-nitrophenyl)allylidene)hydrazine-1-carboximidamide], the figures for the IC50 in experiment [1], in experiment [2] (setting [3]) and in experiment [2] (hBACE 1 PIC50 (μM)) were 216 ± 3.61 µM, 12.3 ± 0.6 µM and 12.3 µM, respectively.
`[H]/N=C(/N)NN=C(/C=C/c1cccc(OCc2ccccc2)c1)c1cn(Cc2ccccc2)c2ccccc12` [Compound 1o, (Z)-2-((E)-1-(1-Benzyl-1H-indol-3-yl)-3-(3-(benzyloxy)phenyl)allylidene)hydrazine-1-carboximidamide]: the values for the half-maximal inhibitory concentration (IC50) in experiment [1], in experiment [2] (setting [3]) and in experiment [2] (hBACE 1 PIC50 (μM)) were 126.6 ± 0.99 µM, 12.8 ± 0.42 µM and 12.9 µM, respectively.
For `[H]/N=C(/N)NN=C(/C=C/c1cccc(OC)c1OC)c1cn(Cc2ccccc2)c2ccccc12` [Compound 1p, (Z)-2-((E)-1-(1-Benzyl-1H-indol-3-yl)-3-(2,3-dimethoxyphenyl)allylidene)hydrazine-1-carboximidamide] the same measures were 48.6 ± 1.51 µM, 134 ± 1.42 µM and 135 µM.
For `[H]/N=C(/N)NN=C(/C=C/c1ccc(Cl)cc1)c1cn(Cc2ccccc2)c2ccccc12` [Compound 1q, (Z)-2-((E)-1-(1-Benzyl-1H-indol-3-yl)-3-(4-chlorophenyl)allylidene)hydrazine-1-carboximidamide] the same measures were 82.6 ± 1.92 µM, 16.5 ± 0.39 µM and 16.6 µM.
For `[H]/N=C(/N)NN=C(/C=C/c1ccccc1C)c1cn(Cc2ccccc2)c2ccccc12` [Compound 1r, (Z)-2-((E)-1-(1-Benzyl-1H-indol-3-yl)-3-(o-tolyl)allylidene)hydrazine-1-carboximidamide] the same measures were 46.8 ± 1.83 µM, 206 ± 3.75 µM and 204 µM.
Regarding `[H]/N=C(/N)NN=C(/C=C/c1ccccc1)c1cn(Cc2ccc(F)cc2F)c2ccccc12` [Compound 2a, (Z)-2-((E)-1-(1-(2,4-Difluorobenzyl)-1H-indol-3-yl)-3-phenylallylidene)hydrazine-1-carboximidamide], the IC50 was 46.4 ± 1.63 µM in experiment [1], 200.1 ± 1.98 µM in experiment [2] (setting [3]) and 200 µM in experiment [2] (hBACE 1 PIC50 (μM)).
For `[H]/N=C(/N)NN=C(/C=C/c1ccccc1)c1cn(Cc2ccc(C(F)(F)F)cc2)c2ccccc12` [Compound 2b, (Z)-2-((E)-3-Phenyl-1-(1-(4-(trifluoromethyl)benzyl)-1H-indol-3-yl)allylidene)hydrazine-1-carboximidamide] the same measures were 56 ± 2.44 µM, 102 ± 1.06 µM and 102 µM.
For `[H]/N=C(/N)NN=C(/C=C/c1ccccc1)c1cn(Cc2cc(C(F)(F)F)cc(C(F)(F)F)c2)c2ccccc12` [Compound 2c, (Z)-2-((E)-1-(1-(3,5-Bis(trifluoromethyl)benzyl)-1H-indol-3-yl)-3-phenylallylidene)hydrazine-1-carboximidamide] the same measures were 56.6 ± 0.98 µM, 70 ± 0.87 µM and 70.8 µM.
On to `[H]/N=C(/N)NN=C(/C=C/c1ccccc1)c1cn(Cc2ccc(F)cc2C(F)(F)F)c2ccccc12` [Compound 2d, (Z)-2-((E)-1-(1-(4-Fluoro-2-(trifluoromethyl)benzyl)-1H-indol-3-yl)-3-phenylallylidene)hydrazine-1-carboximidamide], for which the IC50 in experiment [1] is 169 ± 1.91 µM; in experiment [2] (setting [3]), 140.9 ± 1.06 µM; in experiment [2] (hBACE 1 PIC50 (μM)), 141 µM.
For `[H]/N=C(/N)NN=C(/C=C/c1ccccc1)c1cn(Cc2ccccc2C#N)c2ccccc12` [Compound 2e, (Z)-2-((E)-1-(1-(2-Cyanobenzyl)-1H-indol-3-yl)-3-phenylallylidene)hydrazine-1-carboximidamide] the same measures were 44.02 ± 0.19 µM, 197 ± 2.42 µM and 195 µM.
For `[H]/N=C(/N)NN=C(/C=C/c1ccccc1)c1cn(Cc2ccc(Cl)cc2)c2ccccc12` [Compound 2f, (Z)-2-((E)-1-(1-(4-Chlorobenzyl)-1H-indol-3-yl)-3-phenylallylidene)hydrazine-1-carboximidamide] the same measures were 42.8 ± 2.79 µM, 213 ± 2.26 µM and 214 µM.
With `[H]/N=C(/N)NN=C(/C=C/c1ccccc1)c1cn(Cc2cc(OC)cc(OC)c2)c2ccccc12` [Compound 2g, (Z)-2-((E)-1-(1-(3,5-Dimethoxybenzyl)-1H-indol-3-yl)-3-phenylallylidene)hydrazine-1-carboximidamide], the concentration for half-maximal inhibition (IC50) in experiment [1] is 55.6 ± 0.72 µM; in experiment [2] (setting [3]) it was 83.4 ± 1.93 µM; in experiment [2] (hBACE 1 PIC50 (μM)), 83.2 µM.
As to `[H]/N=C(/N)NN=C(/C=C/c1ccccc1)c1cn(Cc2ccccc2F)c2ccccc12` [Compound 2h, (Z)-2-((E)-1-(1-(2-Fluorobenzyl)-1H-indol-3-yl)-3-phenylallylidene)hydrazine-1-carboximidamide], the IC50 is 62.86 ± 0.62 µM in experiment [1], 143.2 ± 0.21 µM in experiment [2] (setting [3]) and 145 µM in experiment [2] (hBACE 1 PIC50 (μM)).

The values are drawn from publication PMC11287240 (RSC Advances, 2024).
